Measured values published in PubChem BioAssay AID1645866 (Buhrlage Lab, Dana-Farber Cancer Institute and Novartis …, 2021).
Activity calls are given as the source filed them.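 How the source made its calls: active means in confirmatory dose-response testing, peak deubiquitinase inhibition of 30% or more; inactive means the rest.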

Target: Ubiquitin carboxyl-terminal hydrolase 28 (Homo sapiens) (UniProt Q96RU2)
Assay: Ubiquitin-specific peptidase 28 DUB inhibitors, biochemical concentration-dependence assay, validation of primary screening hits (AID 1645866)
Details: purified USP28, ubiquitin-rhodamine fluorescence, 30 min

Sequence of Ubiquitin carboxyl-terminal hydrolase 28 (Homo sapiens) (Q96RU2 whole entry, looked up): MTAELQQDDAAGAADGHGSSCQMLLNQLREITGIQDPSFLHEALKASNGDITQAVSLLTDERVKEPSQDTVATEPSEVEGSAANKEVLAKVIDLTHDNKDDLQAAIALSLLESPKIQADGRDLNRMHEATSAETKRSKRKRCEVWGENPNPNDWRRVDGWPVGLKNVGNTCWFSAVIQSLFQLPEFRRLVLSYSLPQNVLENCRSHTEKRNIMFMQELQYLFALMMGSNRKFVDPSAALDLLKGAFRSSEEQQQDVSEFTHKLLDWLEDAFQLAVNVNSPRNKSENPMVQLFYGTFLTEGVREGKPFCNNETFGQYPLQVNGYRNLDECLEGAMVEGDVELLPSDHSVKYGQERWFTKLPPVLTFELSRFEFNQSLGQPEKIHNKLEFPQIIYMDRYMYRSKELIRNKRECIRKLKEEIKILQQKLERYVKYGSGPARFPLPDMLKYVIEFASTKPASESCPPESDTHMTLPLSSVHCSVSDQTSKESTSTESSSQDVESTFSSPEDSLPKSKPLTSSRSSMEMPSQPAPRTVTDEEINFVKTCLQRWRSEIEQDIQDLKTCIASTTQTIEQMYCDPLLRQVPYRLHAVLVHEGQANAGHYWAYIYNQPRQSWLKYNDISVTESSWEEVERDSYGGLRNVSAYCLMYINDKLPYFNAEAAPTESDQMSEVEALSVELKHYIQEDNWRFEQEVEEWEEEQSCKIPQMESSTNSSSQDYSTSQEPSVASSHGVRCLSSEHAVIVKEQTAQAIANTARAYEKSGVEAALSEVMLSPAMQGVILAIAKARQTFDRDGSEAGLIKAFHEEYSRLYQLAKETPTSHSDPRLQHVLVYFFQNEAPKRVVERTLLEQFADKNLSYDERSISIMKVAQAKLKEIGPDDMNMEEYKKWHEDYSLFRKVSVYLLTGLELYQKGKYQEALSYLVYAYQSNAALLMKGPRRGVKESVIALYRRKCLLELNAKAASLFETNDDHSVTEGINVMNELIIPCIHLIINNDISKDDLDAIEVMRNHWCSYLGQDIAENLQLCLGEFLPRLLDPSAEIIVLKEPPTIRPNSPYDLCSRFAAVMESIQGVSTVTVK

Compound	IC50
O=C(CSc1nc2ccncc2[nH]1)Nc1ccc(Br)cc1F	26.5 µM
CCOc1ccc(-c2nc(C#N)c(N3CCN(C(=O)c4ccccc4C)CC3)o2)cc1	12 µM
CCC(C)NC(=O)Cn1c(=O)n(-c2ccccc2)c(=O)c2ccc(C(=O)NCc3ccco3)cc21 (centres undefined)	37.9 µM
COc1ccc(-n2nnc(C(=O)Nc3ccccc3)c2N)cc1	> 50 µM (inactive)
O=C(NCc1ccc(-c2nc3cnccc3o2)cc1)c1ccccc1F	15.3 µM
COc1ccc(C2C(C(=O)C(C)(C)C)N3c4ccccc4C=CC3C23C(=O)c2ccccc2C3=O)c(OC)c1 (centres undefined)	> 50 µM (inactive)
O=C(CSc1nnc(CNC(=O)c2ccccc2F)o1)Nc1ccc(OC(F)(F)F)cc1	28.9 µM
Cc1cccc(NC(=O)c2noc3c2CCc2sccc2-3)n1	16.8 µM
Cc1ccn(-c2ccc(NC(=O)C3CCCCC3)cc2)n1	22.6 µM
Cc1ccc2nc(-c3cccc(-c4nc5ccc(C)cc5[nH]4)n3)[nH]c2c1	> 50 µM (inactive)
Nc1c(-c2nc(-c3ccc4c(c3)OCO4)cs2)nnn1-c1ccccc1	30.8 µM
CC1CCc2sc(NC(=O)c3ccccc3Oc3ccccc3)c(C(N)=O)c2C1 (centres undefined)	15.2 µM
Cc1ccccc1C(=O)OCCN1C(=O)c2cccc3c(N4CCCCC4)ccc(c23)C1=O	> 50 µM (inactive)
Cc1nc2nc(SCc3nc4ccccc4n3C)[nH]c2cc1Br	2.9 µM
N#Cc1ccccc1COC(=O)c1ccc2ccccc2n1	6.94 µM
CC(OC(=O)c1c2c(nc3ccccc13)CCCCC2)C(=O)Nc1ccc2ccccc2c1 (centres undefined)	5.1 µM
COc1cccc(-n2c(=O)[nH]c3c(C(N)=O)nc(-c4ccc(OCc5ccccc5)cc4)nc32)c1	> 50 µM (inactive)
O=C(Nc1ccc2c(c1)OCO2)c1cc(-c2cccnc2)n(-c2ccccc2)n1	8.27 µM
O=c1ccc(-c2noc(Cc3cccc(Cl)c3)n2)c[nH]1	0.0563 µM
O=C(c1nnn(Cc2ccc(Cl)cc2)c1-n1cccc1)N1CCCC1	5.97 µM
CCn1cc(NC(=O)CN2CCC3(CC=CCOC3)CC2)c(C)n1	> 50 µM (inactive)
COc1ccc(-n2nnc3c(SCC(=O)Nc4cc(C)on4)ncnc32)cc1	> 50 µM (inactive)
Cc1ccc2nnc(-c3ccccc3)c(C(=O)N3CCN(c4ccccn4)CC3)c2c1	35 µM
Cc1ccc2[nH]cc(S(=O)(=O)c3ccc(C)c(F)c3)c(=O)c2c1	19.9 µM
COc1ccc(-c2cc(C(=O)NC3CCCCCC3)[nH]n2)cc1S(=O)(=O)N(C)C	23.6 µM
O=[N+]([O-])c1ccccc1C(c1c[nH]c2ccccc12)c1c[nH]c2ccccc12	23.8 µM

Compound	IC50
O=C(Nc1ccccc1)c1cn2c3c(cccc3c1=O)CC2	31.9 µM
CCCN1C=NS(=O)(=O)c2cc(C(=O)Nc3ccc(OC)c(Cl)c3)ccc21	35.2 µM
O=C(Cn1c(-c2ccccc2)ncc(C(=O)NC2CC2)c1=O)Nc1ccccc1	14.2 µM
COC(=O)c1ccc2c(=O)n(CCCCCC(=O)NCCc3ccc(S(N)(=O)=O)cc3)c(=O)[nH]c2c1	8.65 µM
COc1ccc(CCN2COc3c(cc(Cl)c4cccnc34)C2)cc1OC	14.1 µM
COc1ccc(CNC(=O)Nc2cccc3ccccc23)cc1	9.99 µM
CC(=O)c1ccc(NC(=O)CC2C(=O)Nc3nc4ccccc4n32)cc1 (centres undefined)	27.3 µM
COc1cc2c(c3oc4cccc(O)c4c(=O)c13)C1C=COC1O2 (centres undefined)	36.7 µM
CC(=O)c1ccccc1NC(=O)COc1ccc(-c2ccc(C#N)cc2)cc1	4.72 µM
COc1ccc2c(c1)CCc1c-2n[nH]c1C(=O)Nc1cc(C)on1	12.2 µM
N#Cc1ccc(NC(=O)Nc2cccn(Cc3ccccc3F)c2=O)cc1	0.235 µM
O=C(COC(=O)Cn1cnc2ccccc21)Nc1ccc2c(c1)OCCO2	29.3 µM
O=C(NCc1ccc(-c2nc3cnccc3o2)cc1)c1cc2ccccc2o1	4.43 µM
COc1cc(C(=O)NC(Cc2ccccc2)c2nc3ccccc3[nH]2)cc(OC)c1OC (centres undefined)	3.77 µM
CC(C)N1CC[C@@H]2[C@H](C1)CN2C(=O)Nc1cccc(F)c1	> 50 µM (inactive)
CC1=CN2C(=N)/C(=C/c3cn(Cc4ccc(Cl)cc4)c4ccccc34)C(=O)N=C2S1	> 50 µM (inactive)
Cc1cc(C)n(-c2ccc(C(=O)Nc3cccc(S(=O)(=O)N4CCCC4)c3)cc2)n1	2.13 µM
COc1cccc(-n2ccc(=O)c(-c3nc(-c4ccccc4Cl)no3)n2)c1	27.4 µM
COc1ccc(NC(=O)c2nnn(-c3ccccc3)c2C)cc1OC	11.6 µM
O=C(Cn1ncc2c(N3CCCCCC3)ncnc21)NCc1ccccc1	> 50 µM (inactive)
COc1ccccc1CNC(=O)c1ccc(CSc2nc3ccncc3n2Cc2ccccc2)cc1	30.9 µM
CCC1=C(c2ccc(C)cc2)S(=O)(=O)NC1=NCC(=O)NC(C)c1ccccc1 (centres undefined)	19.5 µM
Cc1nn(Cc2ccccc2)c(Cl)c1C(=O)NC1CCCc2ccccc21 (centres undefined)	> 50 µM (inactive)
CCCc1nc2sc3c(NCc4ccco4)ncnc3c2c2c1CCC2	< 0.05 µM
Nc1c(C(=O)c2cccs2)oc2nc(-c3ccccc3)cc(-c3ccco3)c12	> 50 µM (inactive)
CC(=O)Nc1ccc(-n2cnc(C(=O)NC(C)c3ccccc3)c2)nc1 (centres undefined)	20.5 µM

Compound	IC50
Cc1ccc(NC(=O)Cc2nnc3cc(-c4nc(C)no4)ccn23)cc1	5.02 µM
CCOc1ccc2c(c1)c(=O)c(C(=O)c1ccccc1)cn2CC(=O)Nc1ccccc1	9.83 µM
O=C1CC(C(=O)Nc2ccc(F)cc2)n2nc(SCc3ccccc3)nc2N1 (centres undefined)	29.3 µM
COC(=O)c1c(C)[nH]c(C(=O)C(C)OC(=O)CCC2CCCC2)c1C (centres undefined)	1.47 µM
Cc1cc(C)n(-c2cccc(C(=O)Nc3ccc4c(c3)CCN4S(C)(=O)=O)c2)n1	3.69 µM
O=C(NCc1cccnc1)c1cnn2c(C(F)(F)F)cc(-c3ccccc3)nc12	> 50 µM (inactive)
COc1ccc(C2CC(=O)Nc3n[nH]c(-c4ccccc4)c32)cc1OC (centres undefined)	33.7 µM
Cc1nn(Cc2ccccc2)c2sc(C(=O)Nc3nc4ccccc4[nH]3)cc12	20.8 µM
COc1cccc(NC(=O)Nc2ccc(NC(C)=O)cc2)c1	4.04 µM
Cc1ccc(/C=C/C(=O)Nc2ccc3c(c2)OCCO3)cc1	3.76 µM
COc1ccc(C2/C(=C(\O)c3ccccc3)C(=O)C(=O)N2c2nc3ccc(F)cc3s2)cc1 (centres undefined)	21.6 µM
Cc1cccc(NC(=O)c2nc(N3CCSCC3)c3cnn(C)c3n2)c1	> 50 µM (inactive)
COc1ccc(CNC(=O)CSc2nc3nc(C)ccc3o2)cc1	31.3 µM
Cn1cccc1C(=O)N1CCCC2(C1)Nc1cccnc1NC2=NC1CCCC1 (centres undefined)	> 50 µM (inactive)
O=C(OCc1ccc(Br)cc1)c1ccc2ccccc2n1	1 µM
Cn1c(=O)/c(=C/c2ccccc2)[nH]c(=O)/c1=C/c1ccccc1	10.2 µM
COc1ccc2cc3c(nc2c1)OC(=O)N(CCc1cccc(F)c1)C3	0.233 µM
N#Cc1c(-c2cccs2)cc(-c2cccs2)[nH]c1=O	> 50 µM (inactive)
CC1=C(C(=O)Nc2ccccc2C)C(c2ccc(OCc3ccccc3F)cc2)n2ncnc2N1 (centres undefined)	21.6 µM
Cc1nnc(C(=O)Nc2ccc(C(=O)NCc3ccccc3C)cc2)s1	16.2 µM
CCOc1ccc2cc3c(nc2c1)OC(=O)N(Cc1ccc(C)o1)C3	2.93 µM
Cc1ccc(C)c(NC(=O)CCc2nc(CSc3nc4ccccc4o3)no2)c1	13.4 µM
Cc1ccc(-n2nc(C(=O)Nc3ccc(C)cn3)c3ncn(C)c(=O)c32)cc1	1.69 µM
O=C(Cc1ccc(Cl)c(Cl)c1)OCC(=O)c1c[nH]c2ccccc12	> 50 µM (inactive)
Clc1cncc(Oc2nc(-c3cccnc3)nc3ccccc23)c1	9.69 µM
Cc1cccc(NC(=O)CN2C(=O)CC(c3ccccc3)S(=O)(=O)c3ccccc32)c1C (centres undefined)	21.6 µM

Compound	IC50
COc1cccc(NC(=O)Nc2ccc3nc4n(c(=O)c3c2)CCCC4)c1	3.13 µM
Cc1cc2c(cc1C)NC(CC(=O)Nc1ccc(O)cc1)C(=O)N2 (centres undefined)	25 µM
COC(=O)c1cc(C)sc1NC(=O)c1cccc(OC)c1OC	> 50 µM (inactive)
COc1ccc(-c2cc3nc([C@H](C)NC(=O)Cc4ccccc4C)nn3cn2)cc1	2.61 µM
CC(C)c1ccc(NC(=O)COC(=O)c2ccc3[nH]c4c(c3c2)CCCC4)cc1	31.4 µM
Cc1nc(CN2CCn3c(Cn4cccn4)cnc3C2C)cs1 (centres undefined)	> 50 µM (inactive)
COc1cc(NC(=O)COC(=O)Cn2cnc3ccccc32)cc(OC)c1	40 µM
COc1cccc(C(=O)Oc2ccc3c(=O)c(-c4ccc(OC)c(OC)c4)coc3c2)c1	0.14 µM
CS(=O)(=O)c1ccc(NC(=O)C2CN(c3nc4c(F)cccc4s3)C2)cc1	21.3 µM
COc1ccc(-c2cc(-c3ccccc3)nc(SCC(N)=O)c2C#N)cc1OC	1.97 µM
Cc1ccccc1Cn1cc(SCC(=O)Nc2ccc3c(c2)OCCO3)c2ccccc21	4.81 µM
Cc1nn(-c2cc(N3CCOCC3)ncn2)c(C)c1CCC(=O)Nc1ccc(C(C)C)cc1	23 µM
CCOc1ccc(C(=O)Cn2c(=O)n(CC3CCCO3)c(=O)c3cc(OC)c(OC)cc32)cc1Cl (centres undefined)	23 µM
CC1CCN(S(=O)(=O)c2ccc(C(=O)Nc3ccc(S(N)(=O)=O)cc3)cc2)CC1	30.1 µM
c1coc(CNc2nc3ccccc3n3nnnc23)c1	> 50 µM (inactive)
c1ccc(Cc2nn3c(-c4cccnc4)nnc3c3ccccc23)cc1	2.53 µM
COc1ccccc1OCC(=O)Nc1ccc2c(c1)CCC(=O)N2Cc1ccccc1	> 50 µM (inactive)
Nc1c(C(=O)NCc2ccc3c(c2)OCO3)nnn1Cc1ccc(Br)cc1F	5.37 µM
C/C1=C\CCC(C)C(O)CC(O)C(C)C(O)CCC(C)C(O)CC2(O)OC(CC(OC(=O)CC(=O)O)CC(O)CC(O)CC(O)C(C)C(O)/C=C/C(C)C(C(C)CCCCCCCCN=C(N)N)OC1=O)CC(O)C2O (centres undefined)	4.77 µM
O=C(COC(=O)c1ccc(NS(=O)(=O)c2ccc3c(c2)OCCO3)cc1)NCc1ccc(Cl)cc1	6.76 µM
Cc1ccc(Nc2nc(O)c(CC(=O)Nc3ccccc3C)s2)cc1C	16.7 µM
COc1ccccc1NC(=O)Nc1ccc(NC(=O)c2ccccc2O)cc1	37.4 µM
Cc1cc(C)c(NC(=O)CSc2nc3nccnc3c(=O)n2Cc2ccccc2Cl)c(C)c1	3.33 µM
CCc1nc(-c2cccc(NC(=O)c3ccc(C#N)cc3F)c2)no1	36.2 µM
Cc1cc(N2CCOCC2)nc2ccc(NC(=O)CCC(=O)Nc3ccc(F)cc3)cc12	19.7 µM
O=C(NC1CCN(Cc2ccccc2)CC1)c1[nH]nc2c1CCc1ccccc1-2	6.27 µM
